For series [1], the target named is T1, bombesin receptors of mouse colon cancer (MC-26) cells (Mus musculus, UniProt P21729).
T1 construct: endogenous in cells; host or cells: MC-26 mouse colon carcinoma (tumour membranes)
Nature of the series: 125I-GRP binding to MC-26 tumor membranes. Conditions: 20 pM 125I-GRP. As for the experimental part: The bombesin analog BIM-26147 was tested for the ability to inhibit growth of the mouse colon tumor MC-26.
(§1) For both FIGS. 1 and 2, aliquots of tumor membranes (150 μg protein) were incubated with 20 pM of ^125 I-GRP in the presence of increasing concentrations of peptides, and the displacement of specifically bound ^125 I-GRP to MC-26 tumor membranes by increasing concentrations of peptides is presented as a percent of maximum specific binding of ^125 I-GRP. Each data point is the mean of two observations within an experiment, and represents two experiments. Table 1 presents the IC50 for ^125 I-GRP binding to mouse colon cancer (MC-26) cells and normal colon mucosal cells in the presence of bombesin receptor antagonists. The data in Table 1 was calculated from FIGS. 1 and 2. The fold difference is relative to bombesin (BBS) values.

For series [2], the target named is T2, bombesin receptors of normal mouse colon mucosal membranes (Mus musculus, UniProt P21729).
T2 construct: from tissue; host or cells: normal mouse colon mucosa (membranes)
Nature of the series: 125I-GRP binding to normal mouse colon mucosal membranes. Conditions: 20 pM 125I-GRP. The method, then:
as §1

For the next series, the system named is CX-5 human colon tumor. Nature of the series: CX-5 human colon tumor, 11-day subrenal capsule assay (SRCA). In kind it is in vivo. As to conditions: tumor-bearing athymic nude mice, both CX-5 tests (Tables 2 and 3). From the text: The human colon tumor used for testing was the CX-5 tumor, which was surgically removed from a human and carried as an implant in athymic nude mice. The patient had been untreated prior to surgical removal of the tissue specimen. […] CX-5 was a moderately well-differentiated, mucin secreting adenocarcinoma. The tumor is arranged in acini lined by one or more layers of lining cells which have round to oval vesicular nuclei containing prominent nucleoli. There are frequent mitoses, and the cells have eosinophilic cytoplasm. The acini contain abundant amounts of mucin.
We briefly describe subrenal capsule assay as follows. Tumors, 6-15 mm in diameter, were removed from the athymic mice and immediately placed in RPMI medium (Gibco, Grand Island, N.Y.) at room temperature. In the case of the larger tumors (over 10 mm in diameter), where the central parts frequently contained necrotic tissue, viable tissue was dissected out and placed in a separate Petri dish. The tissue pieces, while immersed in the medium, were cut with scalpels into cubes of approximately 1 mm.
Nude mice were anesthetized by i.p. injection of chloral hydrate (0.35-0.45 ml of a 0.22M solution). A shallow incision was made in the left flank and the kidney was exteriorized. […] Immediately after implantation,the tumor size was measured as described below. […]

pIC50: −log10 of the molar value. Where a SMILES comes first, the peptide text is derived from it. [ ]: non-standard residue; d: D form. The star is where a group is joined. X1 = CC(C)C[C@@H](CN[C@@H](CC(C)C)C(N)=O)N*; pGlu = O=C1CC[C@@H](C(=O)O)N1

T1 sequence (P21729 whole entry): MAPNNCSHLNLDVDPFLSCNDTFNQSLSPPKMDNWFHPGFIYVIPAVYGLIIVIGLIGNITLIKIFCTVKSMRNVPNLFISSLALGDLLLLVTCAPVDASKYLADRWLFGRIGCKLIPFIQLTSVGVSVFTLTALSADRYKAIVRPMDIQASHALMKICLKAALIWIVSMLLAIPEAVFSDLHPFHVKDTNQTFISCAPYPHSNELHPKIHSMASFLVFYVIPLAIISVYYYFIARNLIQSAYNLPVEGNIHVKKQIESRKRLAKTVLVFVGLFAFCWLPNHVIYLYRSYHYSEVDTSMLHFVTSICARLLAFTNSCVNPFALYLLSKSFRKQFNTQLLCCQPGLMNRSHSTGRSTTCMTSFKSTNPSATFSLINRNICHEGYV
T2 sequence (P21729 whole entry): as above

`CC(C)C[C@@H](CN[C@@H](CC(C)C)C(N)=O)NC(=O)[C@H](Cc1cnc[nH]1)NC(=O)CNC(=O)[C@@H](NC(=O)[C@H](C)NC(=O)[C@H](Cc1c[nH]c2ccccc12)NC(=O)[C@H](CCC(N)=O)NC(=O)[C@H](CC(N)=O)NC(=O)CNC(=O)[C@H](CC(C)C)NC(=O)[C@H](CCCN=C(N)N)NC(=O)[C@H](CCC(N)=O)NC(=O)[C@@H]1CCC(=O)N1)C(C)C` [Leu^13 --.psi.(CH2,NH)--Leu^14 --BBS, Leu^13 .psi.[CH2 NH]Leu^14 bombesin] ([pGlu]QRLGNQWAVGH-X1): the results for the negative logarithm of the IC50 (pIC50) in series [1] and in series [2] were 7.10 and 7.82, respectively.
On the same counts, the results for `CCCNC(=O)[C@H](CC(C)C)NC(=O)[C@H](Cc1cnc[nH]1)NC(=O)CNC(=O)[C@@H](NC(=O)[C@H](C)NC(=O)[C@H](Cc1c[nH]c2ccccc12)NC(=O)[C@H](CCC(N)=O)NC(=O)[C@H](N)Cc1ccccc1)C(C)C` [BIM-26147, D-Phe-Gln-Trp-Ala-Val-Gly-His-Leu-propylamide] are 8.35 and 8.80.
Regarding `CC(C)C[C@@H](CN[C@@H](Cc1ccccc1)C(N)=O)NC(=O)[C@H](Cc1c[nH]cn1)NC(=O)CNC(=O)[C@@H](NC(=O)[C@H](C)NC(=O)[C@H](Cc1c[nH]c2ccccc12)NC(=O)[C@H](CCC(N)=O)NC(=O)[C@H](N)Cc1ccc(Cl)cc1)C(C)C` [BIM-26159, D-Cpa-Gln-Trp-Ala-Val-Gly-His-Leu.psi.[CH2 NH]Phe-NH2], in the series on CX-5 human colon tumor, the “effect on body weight” value was “no measurable effect on body weight”.

One may read the pIC50 as the IC50 on a negative log10 scale, so that one unit is a factor of ten. Read a low pIC50 as a high IC50.

Values taken from patent publication US5736517A, “Treatment of cancer with peptides” (Biomeasure, Inc., priority 1993, dated 1998).
